# Values quoted from earlier work as cited in patent US6500632B1, “Assay for screening inhibitors of C4 plant enzymes” (Australian Institute of Marine Science, priority 1998, dated 2002).
# How the values were obtained:
# [1] = biological target: T1, phosphoenolpyruvate carboxylase (Zea mays, UniProt P04711); settings: literature (Jenkins et al.; McFadden et al.)
# T1 sequence (P04711 1-970): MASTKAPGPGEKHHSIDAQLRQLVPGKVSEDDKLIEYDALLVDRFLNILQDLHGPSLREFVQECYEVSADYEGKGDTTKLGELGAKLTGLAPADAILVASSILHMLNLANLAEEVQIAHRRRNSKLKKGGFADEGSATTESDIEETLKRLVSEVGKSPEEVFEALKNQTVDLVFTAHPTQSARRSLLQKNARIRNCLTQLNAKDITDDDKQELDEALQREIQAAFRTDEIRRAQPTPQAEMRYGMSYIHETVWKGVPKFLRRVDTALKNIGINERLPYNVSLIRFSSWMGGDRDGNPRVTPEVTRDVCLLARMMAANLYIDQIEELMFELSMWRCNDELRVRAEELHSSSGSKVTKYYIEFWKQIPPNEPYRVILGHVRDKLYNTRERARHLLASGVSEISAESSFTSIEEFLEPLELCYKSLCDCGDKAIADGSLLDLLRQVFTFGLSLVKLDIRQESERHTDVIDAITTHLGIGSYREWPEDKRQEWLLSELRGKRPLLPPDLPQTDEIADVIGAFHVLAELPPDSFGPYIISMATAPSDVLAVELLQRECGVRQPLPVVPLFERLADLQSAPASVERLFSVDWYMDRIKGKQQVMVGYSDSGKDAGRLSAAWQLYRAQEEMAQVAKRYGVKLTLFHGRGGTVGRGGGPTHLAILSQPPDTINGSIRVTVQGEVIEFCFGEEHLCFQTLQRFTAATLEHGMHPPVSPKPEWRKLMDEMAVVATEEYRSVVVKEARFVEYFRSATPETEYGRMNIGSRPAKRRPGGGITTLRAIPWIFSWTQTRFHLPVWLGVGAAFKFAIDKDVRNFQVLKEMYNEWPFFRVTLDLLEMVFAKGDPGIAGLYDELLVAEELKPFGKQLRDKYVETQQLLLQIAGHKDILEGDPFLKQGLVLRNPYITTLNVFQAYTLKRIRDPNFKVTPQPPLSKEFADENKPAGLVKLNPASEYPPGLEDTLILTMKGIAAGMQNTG
# C4 plants = settings: literature
substance,measurement,setting,value
"3,3-dichloro-2(dihydroxy-phosphinoylmethyl)propenoate",inhibition of a C4 enzyme (phosphoenolpyruvate carboxylase),[1],specifically inhibited
same,effect on the growth of C4 plants,C4 plants,no effect
